Broadly, the MIC is the lowest concentration found to suppress growth.

This note sets out measurements from PubChem BioAssay AID1505 (Sanford-Burnham Center for Chemical Genomics, 2009).

The assay concerns Y. pseudotuberculosis YP126 growth, MIC at 37 C. Kind of assay: Y. pseudotuberculosis growth inhibition MIC, strain YP126, 22/37/40 C (AID 1505).

≈ marks a conversion by molar mass, not a printed value. Calls of active or inactive are those of the source. No rule for the calls is given here.

On to `Cc1ccc(CNC(=O)c2ccc([N+](=O)[O-])o2)cc1`, for which the minimum inhibitory concentration (MIC) is 25 µM (≈ 6.51 µg/mL). The compound further displayed a minimum inhibitory concentration (MIC) (measured here: MIC at 22 C) of 400 µM (≈ 104 µg/mL). Under “measured here: MIC at 40 C”, the minimum inhibitory concentration (MIC) was under 12 µM.
Taken in the same sequence, the figures for `O=C(Nc1ccc2[nH]ccc2c1)c1cccs1` were 400 µM (inactive) (≈ 96.9 µg/mL), 400 µM (≈ 96.9 µg/mL) and 400 µM (≈ 96.9 µg/mL).
